Values joined by “and” are separate entries in the source; they are usually repeats but may differ in a detail not shown here. Identical values can stand only once. Toxic doses and inconclusive results are not listed. Where a SMILES comes first, the peptide text is derived from it.
System: B6C3F1 mice, B16 melanoma ip, median survival T/C
Assay: NCI In Vivo Anticancer Drug Screen. Data for tumor model B16 Melanoma (intraperitoneal) in B6C3F1 mice
Settings: endpoint: median survival time, higher = longer survival
Experimental: The antitumor activity of compounds was measured in mice bearing transplantable tumors. Survival or tumor size were measured and the results are expressed as the measurement made in the treated group (T) divided by the measurement made in the vehicle treated control group (C). The tumor model used in this assay is B16 Melanoma (intraperitoneal) in B6C3F1 mice

[1] = dose: 0.75 mg/kg/injection, schedule: Q01DX009 (ip), vehicle: Klucel (hydroxypropylcellulose) (HPC)
[2] = dose: 100.0 mg/kg/injection, schedule: Q01DX009 (ip), vehicle: Klucel (hydroxypropylcellulose) (HPC)
[3] = dose: 200.0 mg/kg/injection, schedule: Q01DX009 (ip), vehicle: Klucel (hydroxypropylcellulose) (HPC)
[4] = dose: 400.0 mg/kg/injection, schedule: Q01DX009 (ip), vehicle: Klucel (hydroxypropylcellulose) (HPC)
[5] = dose: 12.5 mg/kg/injection, schedule: Q01DX009 (ip), vehicle: saline with Tween-80
[6] = dose: 25.0 mg/kg/injection, schedule: Q01DX009 (ip), vehicle: saline with Tween-80
[7] = dose: 50.0 mg/kg/injection, schedule: Q01DX009 (ip), vehicle: Klucel (hydroxypropylcellulose) (HPC)
[8] = dose: 50.0 mg/kg/injection, schedule: Q01DX009 (ip), vehicle: saline with Tween-80
[9] = dose: 100.0 mg/kg/injection, schedule: Q01DX009 (ip), vehicle: saline with Tween-80
[10] = dose: 200.0 mg/kg/injection, schedule: Q01DX009 (ip), vehicle: saline with Tween-80
[11] = dose: 400.0 mg/kg/injection, schedule: Q01DX009 (ip), vehicle: saline with Tween-80
[12] = dose: 12.5 mg/kg/injection, schedule: Q01DX009 (ip), vehicle: saline
[13] = dose: 50.0 mg/kg/injection, schedule: Q01DX009 (ip), vehicle: saline
[14] = dose: 100.0 mg/kg/injection, schedule: Q01DX009 (ip), vehicle: saline
[15] = dose: 200.0 mg/kg/injection, schedule: Q01DX009 (ip), vehicle: saline
[16] = dose: 1.0 mg/kg/injection, schedule: Q01DX009 (ip), vehicle: saline + alcohol
[17] = dose: 6.25 mg/kg/injection, schedule: Q01DX009 (ip), vehicle: saline with Tween-80
[18] = dose: 25.0 mg/kg/injection, schedule: Q01DX009 (ip), vehicle: Klucel (hydroxypropylcellulose) (HPC)

Compound: CC(C)=CC(=O)OC1C2C(C)=CC(=O)C(O)C2(C)C2C3(O)OCC24C(CC(=O)OC14)C(C)C3O (stereo not drawn)
- T/C (dose: 0.25 mg/kg/injection, schedule: Q01DX009 (ip), vehicle: distilled water + Tween-80): 163 % of control and 168 % of control
- T/C (dose: 0.5 mg/kg/injection, schedule: Q01DX009 (ip), vehicle: distilled water + Tween-80): 150 % of control and 160 % of control and 168 % of control

Compound: CC1=CCC[C@@H]2C1(C)CCC(C)[C@@]2(C)CC1=CC(=O)C=CC1=O (stereo partly drawn)
- T/C [1]: 93 % of control
- T/C (dose: 1.25 mg/kg/injection, schedule: Q01DX009 (ip), vehicle: Klucel (hydroxypropylcellulose) (HPC)): 95 % of control

Compound: c1ccc2c3c(c4c(c2c1)CN(C1CCCCC1)CO4)OCN(C1CCCCC1)C3
- T/C (dose: 3.12 mg/kg/injection, schedule: Q01DX009 (ip), vehicle: other): 92 % of control
- T/C (dose: 6.25 mg/kg/injection, schedule: Q01DX009 (ip), vehicle: other): 89 % of control

Compound: CN(CC(=O)O)C(=O)CNC(=O)CNC(=O)OCc1ccccc1 (HELM PEPTIDE1{[O=C(OCc1ccccc1)[*:2]].G.G.[Sar]}$$$$V2.0)
- T/C [2]: 104 % of control
- T/C [3]: 107 % of control
- T/C [4]: 98 % of control

Compound: NC(Cc1ccc(O)cc1)C(=O)O (stereo not drawn)
- T/C [5]: 102 % of control
- T/C [6]: 113 % of control
- T/C [7]: 120 % of control
- T/C [8]: 113 % of control
- T/C [2]: 99 % of control
- T/C [9]: 103 % of control
- T/C [3]: 109 % of control
- T/C [10]: 98 % of control
- T/C [4]: 96 % of control
- T/C [11]: 103 % of control

Compound: NC(Cn1ccc(=O)c(O)c1)C(=O)O (stereo not drawn)
- T/C [12]: 107 % of control
- T/C (dose: 25.0 mg/kg/injection, schedule: Q01DX009 (ip), vehicle: saline): 111 % of control
- T/C [13]: 101 % of control
- T/C [14]: 105 % of control
- T/C [15]: 105 % of control

Compound: CC(SC(C)C(=O)N/N=C/c1ccc(C#N)cc1)C(=O)N/N=C\c1ccc(C#N)cc1 (stereo not drawn)
- T/C [8]: 92 % of control
- T/C [9]: 88 % of control
- T/C [10]: 87 % of control
- T/C [15]: 88 % of control

Compound: CCCCCCCCCCNCCS
- T/C (dose: 5.0 mg/kg/injection, schedule: Q01DX009 (ip), vehicle: Klucel (hydroxypropylcellulose) (HPC)): 88 % of control
- T/C (dose: 10.0 mg/kg/injection, schedule: Q01DX009 (ip), vehicle: Klucel (hydroxypropylcellulose) (HPC)): 99 % of control
- T/C (dose: 20.0 mg/kg/injection, schedule: Q01DX009 (ip), vehicle: Klucel (hydroxypropylcellulose) (HPC)): 104 % of control

Compound: COc1cc(C[C@@H]2COC(=O)[C@]2(O)Cc2ccc(O)c(OC)c2)ccc1O
- T/C [16]: 102 % of control
- T/C (dose: 2.0 mg/kg/injection, schedule: Q01DX009 (ip), vehicle: saline + alcohol): 88 % of control
- T/C (dose: 4.0 mg/kg/injection, schedule: Q01DX009 (ip), vehicle: saline + alcohol): 91 % of control
- T/C (dose: 8.0 mg/kg/injection, schedule: Q01DX009 (ip), vehicle: saline + alcohol): 101 % of control
- T/C (dose: 16.0 mg/kg/injection, schedule: Q01DX009 (ip), vehicle: saline + alcohol): 86 % of control

Compound: C=C1C(C)C2C(Cc3ccccc3)NC(=O)C23C(OC(C)=O)/C=C/C(C)(O)CC(C)C/C=C/C3C1O (stereo not drawn)
- T/C (dose: 0.37 mg/kg/injection, schedule: Q01DX009 (ip), vehicle: Klucel (hydroxypropylcellulose) (HPC)): 112 % of control and 99 % of control
- T/C [1]: 110 % of control and 100 % of control and 101 % of control
- T/C (dose: 1.5 mg/kg/injection, schedule: Q01DX009 (ip), vehicle: Klucel (hydroxypropylcellulose) (HPC)): 115 % of control and 98 % of control and 103 % of control
- T/C (dose: 1.56 mg/kg/injection, schedule: Q01DX009 (ip), vehicle: saline with Tween-80): 124 % of control
- T/C (dose: 3.0 mg/kg/injection, schedule: Q01DX009 (ip), vehicle: Klucel (hydroxypropylcellulose) (HPC)): 112 % of control and 115 % of control and 105 % of control
- T/C (dose: 3.13 mg/kg/injection, schedule: Q01DX009 (ip), vehicle: saline with Tween-80): 111 % of control
- T/C (dose: 6.0 mg/kg/injection, schedule: Q01DX009 (ip), vehicle: Klucel (hydroxypropylcellulose) (HPC)): 103 % of control
- T/C [17]: 113 % of control
- T/C (dose: 12.0 mg/kg/injection, schedule: Q01DX009 (ip), vehicle: Klucel (hydroxypropylcellulose) (HPC)): 103 % of control

Compound: CC(=O)Nc1ccc(N=Nc2c(O)c(S(=O)(=O)O)cc3cc(S(=O)(=O)O)ccc23)cc1
- T/C [8]: 111 % of control
- T/C [9]: 100 % of control
- T/C [10]: 98 % of control

Compound: N=C(N)CCCCCCCCC(=N)N
- T/C (dose: 0.78 mg/kg/injection, schedule: Q01DX009 (ip), vehicle: saline): 99 % of control and 102 % of control
- T/C (dose: 1.56 mg/kg/injection, schedule: Q01DX009 (ip), vehicle: saline): 108 % of control and 112 % of control
- T/C (dose: 3.12 mg/kg/injection, schedule: Q01DX009 (ip), vehicle: saline): 110 % of control
- T/C (dose: 3.13 mg/kg/injection, schedule: Q01DX009 (ip), vehicle: saline): 102 % of control
- T/C (dose: 6.25 mg/kg/injection, schedule: Q01DX009 (ip), vehicle: saline): 118 % of control and 106 % of control
- T/C [12]: 112 % of control

Compound: Nc1nc(=S)c2ncn(C3OC(COC(=O)c4ccccc4)C(OC(=O)c4ccccc4)C3OC(=O)c3ccccc3)c2[nH]1 (stereo not drawn)
- T/C [17]: 112 % of control
- T/C [5]: 117 % of control
- T/C [6]: 111 % of control
- T/C [8]: 97 % of control

Compound: O=CC(CO)CC(C=O)n1cnc2c(=O)[nH]cnc21 (stereo not drawn)
- T/C (dose: 37.5 mg/kg/injection, schedule: Q01DX009 (ip), vehicle: saline): 106 % of control
- T/C (dose: 75.0 mg/kg/injection, schedule: Q01DX009 (ip), vehicle: saline): 108 % of control
- T/C (dose: 150.0 mg/kg/injection, schedule: Q01DX009 (ip), vehicle: saline): 100 % of control
- T/C (dose: 300.0 mg/kg/injection, schedule: Q01DX009 (ip), vehicle: saline): 111 % of control

Compound: CC(C)(C)OC(=O)NCCCCC(NC(=O)OCC1c2ccccc2-c2ccccc21)C(=O)O (stereo not drawn)
- T/C [18]: 100 % of control
- T/C [7]: 95 % of control

Compound: NC(=S)c1ncn(C2OC(COC=O)C(OC=O)C2OC=O)c1NC=O (stereo not drawn)
- T/C [18]: 100 % of control
- T/C [7]: 100 % of control
- T/C [2]: 92 % of control
- T/C [3]: 87 % of control

Compound: NCCc1ccc(O)cc1
- T/C [13]: 96 % of control
- T/C [14]: 96 % of control
- T/C [15]: 96 % of control
- T/C (dose: 400.0 mg/kg/injection, schedule: Q01DX009 (ip), vehicle: saline): 104 % of control

Compound: COC(=O)[C@@]12OC[C@]34[C@H]([C@@H](O)[C@@H]1O)[C@@]1(C)CC(=O)C(O)=C(C)[C@@H]1C[C@H]3OC(=O)[C@H](OC(=O)/C=C(/C)C(C)(C)O)[C@@H]24
- T/C (dose: 0.25 mg/kg/injection, schedule: Q01DX009 (ip), vehicle: saline + alcohol): 104 % of control
- T/C (dose: 0.5 mg/kg/injection, schedule: Q01DX009 (ip), vehicle: saline + alcohol): 110 % of control and 117 % of control
- T/C [16]: 119 % of control

Compound: COc1ccc(C(C)c2cc3c(cc2OC)OCO3)cc1 (stereo not drawn)
- T/C [6]: 99 % of control
- T/C [8]: 99 % of control
- T/C [9]: 100 % of control
- T/C [10]: 104 % of control

Compound: CC(=O)[C@]1(O)Cc2c(O)c3c(c(O)c2[C@@H](OC2CC(N)C(O)C(C)O2)C1)C(=O)c1c(O)cccc1C3=O (stereo partly drawn)
- T/C (dose: 0.38 mg/kg/injection, schedule: Q01DX001 (ip), vehicle: water): 150 % of control

Compound: NC(CSSCC(N)C(=O)O)C(=O)O (stereo not drawn)
- T/C [9]: 101 % of control
- T/C [10]: 103 % of control
- T/C [11]: 117 % of control
- T/C (dose: 800.0 mg/kg/injection, schedule: Q01DX009 (ip), vehicle: saline with Tween-80): 102 % of control

Compound: COc1cc2c(cc1OC)-c1c3c(cc4c1[C@@H](C2)N(C)CC4)OCO3
- T/C (dose: 6.25 mg/kg/injection, schedule: Q01DX009 (ip), vehicle: distilled water + Tween-80): 98 % of control
- T/C (dose: 12.5 mg/kg/injection, schedule: Q01DX009 (ip), vehicle: distilled water + Tween-80): 89 % of control
- T/C (dose: 25.0 mg/kg/injection, schedule: Q01DX009 (ip), vehicle: distilled water + Tween-80): 104 % of control
- T/C (dose: 50.0 mg/kg/injection, schedule: Q01DX009 (ip), vehicle: distilled water + Tween-80): 92 % of control

— PubChem BioAssay AID200 (DTP/NCI, 2004)
